Data from BigSolDB 2.1.

## O=C(Nc1ccc(F)cc1F)c1cccnc1Oc1cccc(C(F)(F)F)c1
In DMF, 278.15 K
  solubility (mole fraction): 0.000523
In DMF, 283.15 K
  solubility (mole fraction): 0.000679
In DMF, 288.15 K
  solubility (mole fraction): 0.000847
In DMF, 293.15 K
  solubility (mole fraction): 0.00104
In DMF, 298.15 K
  solubility (mole fraction): 0.00127
In DMF, 303.15 K
  solubility (mole fraction): 0.00153
In DMF, 308.15 K
  solubility (mole fraction): 0.00182
In DMF, 313.15 K
  solubility (mole fraction): 0.00213
In DMF, 318.15 K
  solubility (mole fraction): 0.00255
In DMF, 323.15 K
  solubility (mole fraction): 0.00298
In ethanol, 278.15 K
  solubility (mole fraction): 0.000244
In ethanol, 283.15 K
  solubility (mole fraction): 0.000319
In ethanol, 288.15 K
  solubility (mole fraction): 0.000425
In ethanol, 293.15 K
  solubility (mole fraction): 0.000537
In ethanol, 298.15 K
  solubility (mole fraction): 0.000683
In ethanol, 303.15 K
  solubility (mole fraction): 0.000901
In ethanol, 308.15 K
  solubility (mole fraction): 0.00111
In ethanol, 313.15 K
  solubility (mole fraction): 0.00142
In ethanol, 318.15 K
  solubility (mole fraction): 0.00176
In ethanol, 323.15 K
  solubility (mole fraction): 0.00216
In ethylene glycol, 278.15 K
  solubility (mole fraction): 1.42e-05
In ethylene glycol, 283.15 K
  solubility (mole fraction): 1.76e-05
In ethylene glycol, 288.15 K
  solubility (mole fraction): 2.25e-05
In ethylene glycol, 293.15 K
  solubility (mole fraction): 2.71e-05
In ethylene glycol, 298.15 K
  solubility (mole fraction): 3.28e-05
In ethylene glycol, 303.15 K
  solubility (mole fraction): 3.89e-05
In ethylene glycol, 308.15 K
  solubility (mole fraction): 4.62e-05
In ethylene glycol, 313.15 K
  solubility (mole fraction): 5.41e-05
In ethylene glycol, 318.15 K
  solubility (mole fraction): 6.34e-05
In ethylene glycol, 323.15 K
  solubility (mole fraction): 7.49e-05
In propylene glycol, 278.15 K
  solubility (mole fraction): 4.63e-05
In propylene glycol, 283.15 K
  solubility (mole fraction): 5.76e-05
In propylene glycol, 288.15 K
  solubility (mole fraction): 7.29e-05
In propylene glycol, 293.15 K
  solubility (mole fraction): 9.02e-05
In propylene glycol, 298.15 K
  solubility (mole fraction): 0.000108
In propylene glycol, 303.15 K
  solubility (mole fraction): 0.000129
In propylene glycol, 308.15 K
  solubility (mole fraction): 0.000152
In propylene glycol, 313.15 K
  solubility (mole fraction): 0.00018
In propylene glycol, 318.15 K
  solubility (mole fraction): 0.000209
In propylene glycol, 323.15 K
  solubility (mole fraction): 0.000245
In water, 278.15 K
  solubility (mole fraction): 1.45e-07
In water, 283.15 K
  solubility (mole fraction): 2.02e-07
In water, 288.15 K
  solubility (mole fraction): 2.68e-07
In water, 293.15 K
  solubility (mole fraction): 3.33e-07
In water, 298.15 K
  solubility (mole fraction): 4.08e-07
In water, 303.15 K
  solubility (mole fraction): 4.98e-07
In water, 308.15 K
  solubility (mole fraction): 6.05e-07
In water, 313.15 K
  solubility (mole fraction): 7.25e-07
In water, 318.15 K
  solubility (mole fraction): 8.72e-07
In water, 323.15 K
  solubility (mole fraction): 1.04e-06
